The results in this text go back to ChEMBL document CHEMBL1201862, “PubChem BioAssay data set” (2004).

Common to all, as to assay: inhibition of tumour cell growth, NCI panel, 48 h
Assay [1] has as its system BT-549.
For assay [2], the system named is LXFL 529.
Assay [3] relates to MDA-MB-435.
Assay [4] deals with Hs-578T.
In assay [5] the test system is HL-60.
The subject of assay [6] is HT-29.
Assay [7] relates to SK-MEL-5.
Assay [8] concerns SK-MEL-28.
In assay [9] the test system is SN12C.
Assay [10] relates to A498.
For assay [11], the system named is MDA-MB-231.
Assay [12] deals with SNB-75.
The subject of assay [13] is SF-295.
Assay [14] has as its system DU-145.
Assay [15] relates to SK-OV-3.
Assay [16] concerns U-251.
Assay [17] deals with UACC-257.
Assay [18] deals with A549.
Assay [19] relates to Malme-3M.
In assay [20] the test system is CAKI-1.

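Cells were grown in 96-well plates and exposed to each compound for 48 hours at five concentrations; endpoints were interpolated linearly between bracketing concentrations, or set to the highest concentration if not reached. GI50 = concentration required for 50% inhibition of growth.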 Calls of active or inactive are those of the source. Rule as the data show it: active = GI50 up to about 1.1 µM and inactive = higher.

Take `N#C/C(=C\c1cc(O)c(O)c(O)c1)C(N)=O`: the GI50 in assay [1] is 97.5 µM (inactive); in [2] it was > 100 µM (inactive); in [3], > 55.7 µM (inactive); in [4] it was > 100 µM (inactive); in assay [5], 37.8 µM (inactive); in [6], > 92.7 µM (inactive). The GI50 is > 69.5 µM (inactive) in assay [7]; > 100 µM (inactive) in [8]; > 84.3 µM (inactive) in assay [9]; > 100 µM (inactive) in [10]; > 66.5 µM (inactive) in [11]; 63.7 µM (inactive) in assay [12]. Moreover, the GI50 in assay [13] is > 100 µM (inactive); in assay [14], 97.7 µM (inactive); in assay [15], > 100 µM (inactive); in assay [16], > 87.5 µM (inactive); in [17], > 100 µM (inactive); in assay [18], > 100 µM (inactive). The GI50 in assay [19] and in assay [20] was > 100 µM (inactive) in each case.

With `CN(C)CC1CCC(CN(C)C)C1=O` (configuration not stated), the GI50 in [2] is 1.47 µM (inactive); in [3], 20 µM (inactive); in assay [4] it was 3.06 µM (inactive); in assay [5], 0.294 µM (active); in [6] it was 6.64 µM (inactive); in assay [7] it was 8.26 µM (inactive). Also, the GI50 in assay [8] was 8.65 µM (inactive); in assay [9], 6.89 µM (inactive); in assay [10], 25.4 µM (inactive); in [11] it was 2.07 µM (inactive); in [12], 20.7 µM (inactive); in [13] it was 18.3 µM (inactive). For the same compound, the GI50 in [15] is 16.8 µM (inactive); in [16], 24.3 µM (inactive); in assay [17], 8.34 µM (inactive); in assay [18] it was 18.7 µM (inactive); in [19], 1.73 µM (inactive); in assay [20] it was 0.736 µM (active).

Consider `Cc1c2cc[n+](C)cc2c(C)c2c1oc1ccccc12`, for which the GI50 in assay [1] is 0.608 µM (active); in assay [2] it was 1.54 µM (inactive); in assay [3], 7.83 µM (inactive); in assay [4], 0.54 µM (active); in [5] it was 12 µM (inactive); in [6], 14.4 µM (inactive). Also, the GI50 was 3.41 µM (inactive) in assay [7]; 6.85 µM (inactive) in [8]; 0.475 µM (active) in assay [9]; 42.9 µM (inactive) in assay [10]; 12.9 µM (inactive) in [11]; 1.98 µM (inactive) in assay [12]. Besides, the GI50 in assay [13] was 1.69 µM (inactive); in assay [14] it was 15.9 µM (inactive); in [15], 14.7 µM (inactive); in assay [16] it was 0.652 µM (active); in assay [17], 4.29 µM (inactive); in assay [18], 1.95 µM (inactive). The figures for the GI50 in assay [19] and in assay [20] were 1.6 µM (inactive) and 28.4 µM (inactive), respectively.

In the case of `O=C1C=C2S[C@H]3C[C@]2(C=C1Br)C1=C(N3)C(=O)c2[nH]cc3c2C1=NCC3` [(+)-DISCORHABDIN B], the GI50 in [2] is 0.19 µM (active); in assay [3] it was 0.158 µM (active); in assay [4], 1.5 µM (inactive); in assay [5], 0.0853 µM (active); in assay [6] it was 0.344 µM (active); in assay [7], 1.04 µM (active). In addition, the GI50 in assay [8] was 1.4 µM (inactive); in assay [9] it was 1.23 µM (inactive); in assay [10], 5.65 µM (inactive); in assay [11] it was 0.305 µM (active); in assay [12] it was 1.55 µM (inactive); in assay [13], 1.5 µM (inactive). Besides, the GI50 in assay [14] is 1.92 µM (inactive); in assay [15], 5.62 µM (inactive); in assay [16], 1.75 µM (inactive); in assay [17], 0.213 µM (active); in assay [18], 2.47 µM (inactive); in assay [19], 0.115 µM (active). In assay [20], the GI50 is 1.69 µM (inactive).
